≈ marks a conversion by molar mass, not a printed value. Like-named read-outs stand apart in the source and are kept apart here.
Legend:
Assay in all cases: MIC, antimicrobial activity
[1] = tested on: Serratia marcescens ATCC 13880; settings: for MIC: Serratia marcescens
Proteus mirabilis TB-617 = type: cell-based; settings: for Minimum Inhibitory Concentration (MIC): Proteus mirabilis TB-617; for MIC: Proteus mirabilis, TB617, Proteus mirabilis TB-617, read-out: Minimum Inhibitory Concentration (MIC)
[2] = tested on: Escherichia coli NIHJ JC-2; settings: for Minimum Inhibitory Concentration (MIC): Escherichia coli NIHJ JC-2; for MIC: Escherichia coli
[3] = tested on: Escherichia coli W-677/JR-762; settings: for Minimum Inhibitory Concentration (MIC): Escherichia coli W-677/JR-762, tobramycin resistant strain; for MIC: Escherichia coli, W677/JR762, read-out: Minimum Inhibitory Concentration (MIC), Escherichia coli W-677/JR-762, tobramycin resistant strain
[4] = tested on: Klebsiella pneumoniae Kl-38; settings: for Minimum Inhibitory Concentration (MIC): Klebsiella pneumoniae Kl-38; for MIC: Klebsiella pneumoniae
[5] = tested on: Pseudomonas aeruginosa PP-6; settings: for MIC: Pseudomonas aeruginosa; for Minimum Inhibitory Concentration (MIC): Pseudomonas aeruginosa PP-6, tobramycin resistant strain
Proteus rettgeri Ret 40 = settings: for Minimum Inhibitory Concentration (MIC): Proteus rettgeri Ret 40; for MIC: Providencia rettgeri, RET40, read-out: Minimum Inhibitory Concentration (MIC), Proteus rettgeri Ret 40
[6] = tested on: Enterobacter cloacae TB-718; type: cell-based; settings: for Minimum Inhibitory Concentration (MIC): Enterobacter cloacae TB-718; for MIC: Enterobacter cloacae, TB718, Enterobacter cloacae TB-718, read-out: Minimum Inhibitory Concentration (MIC)
[7] = tested on: Staphylococcus aureus FDAJC; settings: for MIC: Staphylococcus aureus, read-out: Minimum Inhibitory Concentration (MIC), Staphylococcus aureus FDAJC; for Minimum Inhibitory Concentration (MIC): Staphylococcus aureus FDAJC
[8] = tested on: Pseudomonas aeruginosa Ps-24; settings: for Minimum Inhibitory Concentration (MIC): Pseudomonas aeruginosa Ps-24; for MIC: Pseudomonas aeruginosa
Proteus inconstans In-27 = type: cell-based; settings: for MIC: Providencia alcalifaciens, IN27, read-out: Minimum Inhibitory Concentration (MIC), Proteus inconstans In-27, tobramycin resistant strain; for Minimum Inhibitory Concentration (MIC): Proteus inconstans In-27, tobramycin resistant strain
[9] = ATCC13880, read-out: Minimum Inhibitory Concentration (MIC)
[10] = PP6, read-out: Minimum Inhibitory Concentration (MIC), Pseudomonas aeruginosa PP-6, tobramycin resistant strain
[11] = ATCC13880, read-out: Minimum Inhibitory Concentration (MIC), Serratia marcescens ATCC 13880
[12] = NIHJJC2, read-out: Minimum Inhibitory Concentration (MIC), Escherichia coli NIHJ JC-2
[13] = KL38, read-out: Minimum Inhibitory Concentration (MIC), Klebsiella pneumoniae Kl-38
[14] = PP6, read-out: Minimum Inhibitory Concentration (MIC)
[15] = PS24, read-out: Minimum Inhibitory Concentration (MIC), Pseudomonas aeruginosa Ps-24
[16] = NIHJJC2, read-out: Minimum Inhibitory Concentration (MIC)
[17] = KL38, read-out: Minimum Inhibitory Concentration (MIC)

Row | Structure (SMILES) | MIC [1, 9] | Minimum Inhibitory Concentration (MIC) (Proteus mirabilis TB-617) | Minimum Inhibitory Concentration (MIC) [2] | Minimum Inhibitory Concentration (MIC) [3] | Minimum Inhibitory Concentration (MIC) [4] | MIC [5, 10] | Minimum Inhibitory Concentration (MIC) (Proteus rettgeri Ret 40) | Minimum Inhibitory Concentration (MIC) [6] | MIC [7] | Minimum Inhibitory Concentration (MIC) [8] | MIC (Proteus inconstans In-27) | MIC [1, 11] | Minimum Inhibitory Concentration (MIC) [7] | MIC (Proteus mirabilis TB-617) | MIC [2, 12] | MIC [3] | MIC [4, 13] | MIC (Proteus rettgeri Ret 40) | MIC [6] | MIC [8, 15] | also measured
1 | NC[C@H]1O[C@H](O[C@H]2[C@H](O)[C@@H](O[C@H]3O[C@H](CO)[C@@H](O)[C@H](N)[C@H]3O)[C@H](NC(=O)C(O)C3CNCCN3)C[C@@H]2N)[C@H](N)C[C@@H]1O (single isomer, unassigned) [(8), 1-N-[2-hydroxy-2-(piperazin-2-yl)acetyl]tobramycin] | 25 µg/mL (≈ 41 µM) | 1.6 µg/mL | 1.6 µg/mL | 3.1 µg/mL | 0.8 µg/mL | 12.5 µg/mL (≈ 20.5 µM) | 0.8 µg/mL | 0.8 µg/mL | 0.1 µg/mL (≈ 0.164 µM) | 0.8 µg/mL | 100 µg/mL (≈ 164 µM) | – | – | – | – | – | – | – | – | – | –
2 | NC[C@H]1O[C@H](O[C@H]2[C@H](O)[C@@H](O[C@H]3O[C@H](CO)[C@@H](O)[C@H](N)[C@H]3O)[C@H](NC(=O)C(O)C3CNCCN3)C[C@@H]2N)[C@H](N)C[C@@H]1O (single isomer, unassigned) [(9), 1-N-[2-hydroxy-2-(piperazin-2-yl)acetyl]tobramycin] | – | 6.2 µg/mL | 25.0 µg/mL | 25.0 µg/mL | 6.2 µg/mL | – | 3.1 µg/mL | 12.5 µg/mL | – | 3.1 µg/mL | – | 100 µg/mL (≈ 164 µM) | 0.1 µg/mL | – | – | – | – | – | – | – | Minimum Inhibitory Concentration (MIC) [5]: 25.0 µg/mL; Minimum Inhibitory Concentration (MIC) (Proteus inconstans In-27): > 100.0 µg/mL
3 | NC[C@H]1O[C@H](O[C@H]2[C@H](O)[C@@H](O[C@H]3O[C@H](CO)[C@@H](O)[C@H](N)[C@H]3O)[C@H](NC(=O)C(O)C3CCNC3)C[C@@H]2N)[C@H](N)C[C@@H]1O (stereo partly shown) [(1), 1-N-[2-hydroxy-2-(pyrrolidin-3-yl)acetyl]tobramycin] | – | – | – | – | – | – | – | – | 0.1 µg/mL (≈ 0.168 µM) | – | 100 µg/mL (≈ 168 µM) | 12.5 µg/mL (≈ 21 µM) | – | 3.1 µg/mL (≈ 5.21 µM) | 1.6 µg/mL (≈ 2.69 µM) | 6.2 µg/mL (≈ 10.4 µM) | 0.8 µg/mL (≈ 1.35 µM) | 0.8 µg/mL (≈ 1.35 µM) | 1.6 µg/mL (≈ 2.69 µM) | 1.6 µg/mL (≈ 2.69 µM) | MIC [5, 14]: 3.1 µg/mL (≈ 5.21 µM)
4 | NC[C@H]1O[C@H](O[C@H]2[C@H](O)[C@@H](O[C@H]3O[C@H](CO)[C@@H](O)[C@H](N)[C@H]3O)[C@H](NC(=O)C(O)C3CCN3)C[C@@H]2N)[C@H](N)C[C@@H]1O (stereo partly shown) [(2), 1-N-[2-hydroxy-2-(azetidin-2-yl)acetyl]tobramycin] | 50 µg/mL (≈ 86.1 µM) | – | – | – | – | 12.5 µg/mL (≈ 21.5 µM) | – | – | 0.1 µg/mL (≈ 0.172 µM) | – | > 100 µg/mL | – | – | 3.1 µg/mL (≈ 5.34 µM) | 6.2 µg/mL (≈ 10.7 µM) | 6.2 µg/mL (≈ 10.7 µM) | 1.6 µg/mL (≈ 2.76 µM) | 0.8 µg/mL (≈ 1.38 µM) | 3.1 µg/mL (≈ 5.34 µM) | 1.6 µg/mL (≈ 2.76 µM) | –
5 | NC[C@H]1O[C@H](O[C@H]2[C@H](O)[C@@H](O[C@H]3O[C@H](CO)[C@@H](O)[C@H](N)[C@H]3O)[C@H](NC(=O)C(O)C3CNC3)C[C@@H]2N)[C@H](N)C[C@@H]1O (stereo partly shown) [(3), 1-N-[2-hydroxy-2-(azetidin-3-yl)acetyl]tobramycin] | 6.2 µg/mL (≈ 10.7 µM) | – | – | – | – | – | – | – | 0.1 µg/mL (≈ 0.172 µM) | – | 50 µg/mL (≈ 86.1 µM) | – | – | 0.8 µg/mL (≈ 1.38 µM) | 0.4 µg/mL (≈ 0.689 µM) | 1.6 µg/mL (≈ 2.76 µM) | 0.4 µg/mL (≈ 0.689 µM) | 0.4 µg/mL (≈ 0.689 µM) | 0.4 µg/mL (≈ 0.689 µM) | 0.4 µg/mL (≈ 0.689 µM) | MIC [5, 14]: 1.6 µg/mL (≈ 2.76 µM)
6 | NC[C@H]1O[C@H](O[C@H]2[C@H](O)[C@@H](O[C@H]3O[C@H](CO)[C@@H](O)[C@H](N)[C@H]3O)[C@H](NC(=O)C(O)C3CCCNC3)C[C@@H]2N)[C@H](N)C[C@@H]1O (stereo partly shown) [(4), 1-N-[2-hydroxy-2-(piperidin-3-yl)acetyl]tobramycin] | 25 µg/mL (≈ 41.1 µM) | – | – | – | – | 25 µg/mL (≈ 41.1 µM) | – | – | 0.1 µg/mL (≈ 0.164 µM) | – | > 100 µg/mL | – | – | 3.1 µg/mL (≈ 5.09 µM) | 1.6 µg/mL (≈ 2.63 µM) | > 100 µg/mL | 1.6 µg/mL (≈ 2.63 µM) | 1.6 µg/mL (≈ 2.63 µM) | 1.6 µg/mL (≈ 2.63 µM) | 12.5 µg/mL (≈ 20.5 µM) | –
7 | NC[C@H]1O[C@H](O[C@H]2[C@H](O)[C@@H](O[C@H]3O[C@H](CO)[C@@H](O)[C@H](N)[C@H]3O)[C@H](NC(=O)C(O)C3CCCN3)C[C@@H]2N)[C@H](N)C[C@@H]1O (stereo partly shown) [(5), 1-N-[2-hydroxy-2-(pyrrolidin-2-yl)acetyl]tobramycin] | – | 6.2 µg/mL | – | 25.0 µg/mL | 6.2 µg/mL | 25 µg/mL (≈ 42 µM) | 3.1 µg/mL | 6.2 µg/mL | – | 6.2 µg/mL | > 100 µg/mL | 100 µg/mL (≈ 168 µM) | 0.1 µg/mL | – | – | – | – | – | – | – | MIC [2, 16]: 12.5 µg/mL (≈ 21 µM)
8 | NC[C@H]1O[C@H](O[C@H]2[C@H](O)[C@@H](O[C@H]3O[C@H](CO)[C@@H](O)[C@H](N)[C@H]3O)[C@H](NC(=O)C(O)C3CCCN3)C[C@@H]2N)[C@H](N)C[C@@H]1O (stereo partly shown) [(6), 1-N-[2-hydroxy-2-(pyrrolidin-2-yl)acetyl]tobramycin] | 25 µg/mL (≈ 42 µM) | 0.8 µg/mL | 0.8 µg/mL | 3.1 µg/mL | 0.8 µg/mL | – | 0.2 µg/mL | 0.8 µg/mL | – | 1.6 µg/mL | – | – | 0.1 µg/mL | – | – | – | – | – | – | – | MIC [5, 14]: 6.2 µg/mL (≈ 10.4 µM); Minimum Inhibitory Concentration (MIC) (Proteus inconstans In-27): > 100.0 µg/mL
9 | NC[C@H]1O[C@H](O[C@H]2[C@H](O)[C@@H](O[C@H]3O[C@H](CO)[C@@H](O)[C@H](N)[C@H]3O)[C@H](NC(=O)C(O)C3CCCN3)C[C@@H]2N)[C@H](N)C[C@@H]1O (stereo partly shown) [(7), 1-N-[2-hydroxy-2-(pyrrolidin-2-yl)acetyl]tobramycin] | – | 12.5 µg/mL | 50.0 µg/mL | 100.0 µg/mL | – | – | 6.2 µg/mL | 25.0 µg/mL | – | – | – | – | 0.4 µg/mL | – | – | – | – | – | – | – | Minimum Inhibitory Concentration (MIC) ([1]; Serratia marcescens ATCC 13880): > 100.0 µg/mL; MIC [4, 17]: 12.5 µg/mL (≈ 21 µM); Minimum Inhibitory Concentration (MIC) [5]: 50.0 µg/mL; MIC ([8]; PS24, read-out: Minimum Inhibitory Concentration (MIC)): 12.5 µg/mL (≈ 21 µM); Minimum Inhibitory Concentration (MIC) (Proteus inconstans In-27): > 100.0 µg/mL
10 | NC[C@H]1O[C@H](O[C@H]2[C@H](O)[C@@H](O[C@H]3O[C@H](CO)[C@@H](O)[C@H](N)[C@H]3O)[C@H](N)C[C@@H]2N)[C@H](N)C[C@@H]1O [TOB, tobramycin, reference compound] | – | – | – | – | – | 50 µg/mL (≈ 107 µM) | – | – | 0.05 µg/mL (≈ 0.107 µM) | – | – | 3.13 µg/mL (≈ 6.69 µM) | – | – | – | – | – | 0.39 µg/mL (≈ 0.834 µM) | – | 0.39 µg/mL (≈ 0.834 µM) | MIC [2, 16]: 0.78 µg/mL (≈ 1.67 µM); MIC [4, 17]: 3.13 µg/mL (≈ 6.69 µM)
